Results from patent US10670605B2, “Cysteine reactive probes and uses thereof” (The Scripps Research Institute, priority 2015, dated 2020).
pIC50: −log10 of the molar value. *: point of attachment. Cbz = O=C(OCc1ccccc1)*; CH2F = FC*

Experiments:
active CASP10 = target: T1, active CASP10 (Homo sapiens, UniProt Q92851); experiment: Active CASP10 activity assay (AEVD-AMC substrate); assay type: biochemical; conditions: fragments 25 μM; DEVD-CHO 20 μM
T1 sequence (Q92851 220-415 limits assumed): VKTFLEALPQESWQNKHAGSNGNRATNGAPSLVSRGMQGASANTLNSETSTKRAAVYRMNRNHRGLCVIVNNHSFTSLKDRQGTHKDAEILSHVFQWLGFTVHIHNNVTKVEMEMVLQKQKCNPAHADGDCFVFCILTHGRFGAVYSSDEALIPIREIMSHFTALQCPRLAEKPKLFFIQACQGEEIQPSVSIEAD
T1 sequence (Q92851 416-521 limits assumed): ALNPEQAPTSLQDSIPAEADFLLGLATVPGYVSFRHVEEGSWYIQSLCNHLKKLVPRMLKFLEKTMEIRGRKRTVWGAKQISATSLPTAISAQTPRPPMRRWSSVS

active CASP8 [1] = target: T2, active CASP8 (Homo sapiens, UniProt Q14790); experiment: Rho-DEVD-AOMK probe labeling of active CASP8; conditions: 7 50 μM; Ac-DEVD-CHO 20 μM
active CASP8 [2] = target: T2, active CASP8; experiment: CASP8 in vitro activity assay (substrate); assay type: biochemical; design: recombinant, purified active-CASP8 and active-CASP3 added to MDA-MB-231 cell lysates; His6 (C); made in house; host or cells: E. coli BL21(DE3)pLysS; conditions: fragments 100 μM; DEVD-CHO 20 μM
Protocol: Caspase 3 and 8 assays were conducted with CASP8 activity assay kit (BioVision, K112-100) and Caspase 3 activity assay kit (Invitrogen, EnzChek® Caspase-3 Assay Kit), following the manufacturer's instructions. Briefly, recombinant Caspase 3 (10 μM) was added to soluble Ramos lysates (1 mg/mL) to a 100 nM final concentration of protease. Caspase 8 (30 μM) was added to soluble Ramos lysates to a 1 μM final concentration of protease. In triplicate, 50 μL lysate was treated with either DMSO, DEVD-CHO (“DEVD” disclosed as SEQ ID NO: 857) (20 μM) or the indicated compounds (100 μM) for 1 h, following which 50 μL of 2× reaction buffer containing 10 mM DTT and 5 μL substrate (4 mM stock in DMSO of IETD-AFC (“IETD” disclosed as SEQ ID NO: 858) for CASP8; 10 mM stock in DMSO of DEVD-AMC (“DEVD” disclosed as SEQ ID NO: 857) for CASP3) was added to each well and the samples were incubated at ambient temperature for 2 h. Caspase activity was measured from the increase in fluorescence (excitation 380 nm emission 460 nm). Experiments were performed in triplicate. Background was calculated from samples lacking the recombinant caspase.

pro-CASP8 = target: T3, pro-CASP8 (Homo sapiens, UniProt Q14790, D374A/D384A); experiment: Click probe 61 labeling of pro-CASP8 and its competition; assay type: binding; conditions: 300 nM protein in MDA-MB-231 lysate; read-out: apparent IC50 for blockade of 61 labeling of pro-CASP8
T3 construct: a truncated CASP8 (residues 217-479) without the CARD domain; His6 (C); made in house; host or cells: E. coli BL21(DE3)pLysS

pro-CASP10 = pro-CASP10 (Homo sapiens, UniProt Q92851); experiment: Blockade of probe 61 labeling of pro-CASP10; assay type: binding; conditions: 300 nM protein in MDA-MB-231 lysate; read-out: apparent IC50 for blockade of 61 labeling of pro-CASP10
Jurkat cells [3] = experiment: FasL-induced (extrinsic) apoptosis, CellTiter-Glo viability; assay type: cell-based, human
primary human T cells = experiment: FasL-induced apoptosis in activated primary T cells; assay type: cell-based; conditions: anti-CD3, anti-CD28-activated primary human T cells
CASP8 = target: T4, CASP8 (Homo sapiens, UniProt Q14790); experiment: Quantitative proteomics (ABPP-SILAC) with probe 61 in cells; assay type: cell-based; conditions: primary human T cells and Jurkat cells
T4 construct: caspases measured by quantitative proteomics in Jurkat cells treated with 7, 63-R, or 62 followed by probe 61; endogenous in cells; host or cells: Jurkat cells (SILAC), treated in situ

Jurkat cells [4] = experiment: Staurosporine-induced (intrinsic) apoptosis, CellTiter-Glo viability; assay type: cell-based, human; conditions: 30 μM (VAD-FMK 100 μM), 30 min before STS, 6 h
Protocol: 4 mL of Jurkat cells in RPMI (1.5 million cells/mL) were treated with the indicated compound at 30 μM for 30 min (50 mM stock solution in DMSO). Z-VAD-FMK (EMD Millipore Biosciences, 627610) and was used at a final concentration of 100 μM. After pre-incubation, FASL (4 μL of […] stock solution of SuperFasLigandm in water, final concentration=100 ng/mL, Enzo life Sciences) or staurosporine (8 μL of 1 mM stock solution in DMSO, final concentration=2 μM, Fisher Scientific, 50664333). […] The gels were transferred to nitrocellulose membranes and were immunoblotted overnight with the indicated antibodies. For measurements of cell viability, in quadruplicate for each condition, 150,000 cells (100 μL of 1.5 million cells/mL) were plated in Nunc™ MicroWell™ 96-Well Optical-Bottom Plates with Polymer Base (Fisher Scientific). Compounds, FASL and STS were used at the same concentrations indicated above with a 30 minute pre-incubation with compound, followed by 6 hours with either STS or FASL or DMSO. Cell viability was measured with CellTiter-Glo® Luminescent Cell Viability Assay (Promega) and was read on a Biotech Synergy 4 plate reader.

T2 sequence (Q14790 217-374 limits assumed): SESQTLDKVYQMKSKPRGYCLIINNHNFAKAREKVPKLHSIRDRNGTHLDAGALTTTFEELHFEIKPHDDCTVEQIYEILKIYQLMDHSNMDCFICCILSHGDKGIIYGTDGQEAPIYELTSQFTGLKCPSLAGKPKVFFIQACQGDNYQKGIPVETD
T2 sequence (Q14790 385-479 limits assumed): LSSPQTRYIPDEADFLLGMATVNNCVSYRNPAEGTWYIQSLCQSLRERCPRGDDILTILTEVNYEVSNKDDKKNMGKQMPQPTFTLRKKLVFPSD
T3 sequence (Q14790 217-479 D374A/D384A): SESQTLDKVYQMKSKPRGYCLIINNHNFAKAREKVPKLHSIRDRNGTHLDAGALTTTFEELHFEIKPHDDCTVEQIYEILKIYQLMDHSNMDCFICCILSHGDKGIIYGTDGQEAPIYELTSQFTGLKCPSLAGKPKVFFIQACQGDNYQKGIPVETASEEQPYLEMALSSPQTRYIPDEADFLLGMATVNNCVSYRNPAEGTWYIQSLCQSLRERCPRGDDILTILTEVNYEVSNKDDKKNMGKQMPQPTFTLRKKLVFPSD
pro-CASP10, sequence (Q92851 220-521): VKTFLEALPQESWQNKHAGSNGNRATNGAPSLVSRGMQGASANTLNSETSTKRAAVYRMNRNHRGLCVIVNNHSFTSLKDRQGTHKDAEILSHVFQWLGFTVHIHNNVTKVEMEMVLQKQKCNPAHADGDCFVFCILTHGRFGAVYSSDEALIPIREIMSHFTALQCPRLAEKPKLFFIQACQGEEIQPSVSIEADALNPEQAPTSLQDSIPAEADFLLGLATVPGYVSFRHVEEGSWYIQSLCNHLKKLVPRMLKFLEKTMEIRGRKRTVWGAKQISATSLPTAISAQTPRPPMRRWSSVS
T4 sequence (Q14790 217-479): as the sequence (Q14790 217-479 D374A/D384A) above, with A158D, A168D counted along it

Question: How did the “activity of active CASP10 (substrate assay)” value (active CASP10) turn out when Ac-DEVD-CHO [reference compound] was run?
Answer: inhibited

Question: What about the “Rho-DEVD-AOMK labeling of active CASP8” value (active CASP8 [1]) of the same molecule?
Answer: blocked

Question: What about the “CASP8 activity (substrate assay)” value (active CASP8 [2]) of the same molecule?
Answer: blocked

Question: `O=C(c1ccc(N2CCOCC2)cc1)N1CCC[C@@H](N(C(=O)CCl)c2ccccc2)C1` [63-R] was tested. Which pIC50 (pro-CASP8) did it give?
Answer: 6.15

Question: And the pIC50 (pro-CASP10)?
Answer: < 4.00

Question: And the FasL-induced apoptosis (Jurkat cells [3]; Jurkat cells, concentration series, 4 h)?
Answer: fully blocked

Question: And the FasL-induced apoptosis (primary human T cells)?
Answer: substantial resistance

Question: What about the “blockade of CASP8 (chemical proteomics with probe 61)” value (CASP8) of the same molecule?
Answer: inhibited

Question: How did the FasL-induced apoptosis (Jurkat cells [3]; 30 μM (VAD-FMK 100 μM), 30 min before FASL, 6 h) turn out when “Cbz-Val-Ala-Asp-CH2F [reference compound]” was run?
Answer: prevented

Question: And the STS-induced intrinsic apoptosis (Jurkat cells [4])?
Answer: prevented
